Molecules are shown by their SMILES.

Data on one molecule can be found in patent US11976062B2, “Benzisoxazole compound” (OSAKA UNIVERSITY, priority 2018, dated 2024).

The experiment addresses T1, TRPC6 channel (Homo sapiens, UniProt Q9Y210).
T1 construct: expressed in transfected cells; host or cells: HEK293
T1 sequence (Q9Y210 1-931): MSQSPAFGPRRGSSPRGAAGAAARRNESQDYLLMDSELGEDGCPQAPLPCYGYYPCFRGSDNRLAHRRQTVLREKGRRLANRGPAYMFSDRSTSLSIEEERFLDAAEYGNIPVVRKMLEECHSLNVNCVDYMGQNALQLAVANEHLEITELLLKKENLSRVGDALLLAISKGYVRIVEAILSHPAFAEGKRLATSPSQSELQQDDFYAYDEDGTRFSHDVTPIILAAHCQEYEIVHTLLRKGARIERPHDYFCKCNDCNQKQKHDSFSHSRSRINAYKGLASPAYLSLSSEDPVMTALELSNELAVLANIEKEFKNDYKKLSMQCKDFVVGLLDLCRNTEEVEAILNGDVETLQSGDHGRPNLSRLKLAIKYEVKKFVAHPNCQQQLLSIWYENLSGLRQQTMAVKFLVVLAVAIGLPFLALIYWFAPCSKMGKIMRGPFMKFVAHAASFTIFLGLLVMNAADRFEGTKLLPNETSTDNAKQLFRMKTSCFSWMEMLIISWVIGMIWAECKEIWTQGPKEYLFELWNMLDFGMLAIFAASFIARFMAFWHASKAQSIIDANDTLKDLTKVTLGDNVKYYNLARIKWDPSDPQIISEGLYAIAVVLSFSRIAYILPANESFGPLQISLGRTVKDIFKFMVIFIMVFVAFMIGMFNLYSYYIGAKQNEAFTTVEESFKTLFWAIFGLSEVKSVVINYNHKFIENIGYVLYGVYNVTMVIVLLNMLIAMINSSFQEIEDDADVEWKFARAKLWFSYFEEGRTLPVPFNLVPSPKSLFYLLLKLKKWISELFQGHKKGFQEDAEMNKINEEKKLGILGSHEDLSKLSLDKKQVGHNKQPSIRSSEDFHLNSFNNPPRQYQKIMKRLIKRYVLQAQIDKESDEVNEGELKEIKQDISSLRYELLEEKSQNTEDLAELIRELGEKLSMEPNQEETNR
Briefly: Calcium assay using HEK293 cells transiently expressing TRPC6 channel, carbachol activation (Fura-2). In kind it is cell-based. The protocol: A TRPC6 gene was introduced into HEK293 cells (cells derived from human fetal kidney) by lipofection, and the TRPC6 channel was expressed on the cell membrane. Specifically, the plasmid DNA of TRPC6 (pCI-neo; Promega Corporation) was introduced into HEK293 cells using a lipofection reagent, and then cultured at 37° C. for 24 to 48 hours to express the TRPC6 channel on the cell membrane. In the same manner, HEK293 cells into which the TRPC3 gene was introduced were cultured, and the TRPC3 channel was expressed on the cell membrane.
The cultured cells were peeled off with trypsin and seeded on a cover glass again, followed by culturing the cells at 37° C. for 3 hours again. A Fura-2 AM calcium indicator was added to the medium, and the cells were cultured at 37° C. for 30 minutes to allow the cells to incorporate the indicator. For the extracellular solution, a Ca^2+-containing solution and a Ca^2+-free solution were prepared. • Ca^2+-containing solution: 2 mM CaCl2, 132 mM NaCl, 4 mM KCl, 1 mM MgCl2, 5 mM glucose, 5 mM HEPES (pH 7.4) • Ca^2+-free solution: 132 mM NaCl, 4 mM KCl, 1 mM MgCl2, 5 mM glucose, 5 mM HEPES (pH 7.4)
After the cells were added to the Ca^2+-containing solution, the following operation was performed while the fluorescence intensity (510 nm) of Fura-2 was measured at room temperature with an ARGUS CA-20 (Hamamatsu Photonics K.K.) over time. • 0 minutes: TRPC3-expressing cells or TRPC6-expressing cells are placed in a measurement chamber that contains the Ca^2+-containing solution. • After 30 seconds: The Ca^2+-containing solution is replaced with the Ca^2+-free solution. • After 1 minute: A predetermined amount of a test compound is added to the Ca^2+-free solution. • After 3 minutes: Carbachol (100 μM) is added to the Ca^2+-free solution. • After 7 minutes: The Ca^2+-free solution is replaced with the Ca^2+-containing solution that contains a test compound and carbachol […]. • After 15 minutes: Measurement is ended.
Compound 011 was used as the test compound, and the amount of the test compound added was 0.01, 0.1, 0.5, 1.0, 5.0, 10, or 50 μM. For the control, 0.1% DMSO was used in place of the test compound. Carbachol (cch) is a TRPC-channel-activating reagent. Applying carbachol to cells opens the TRPC channel and allows a large amount of Ca^2+ in the extracellular solution to flow into the cells. Fura-2 AM has high cell membrane permeability due to the presence of an AM group (acetoxymethyl group), and is thus easily incorporated into the cells. The AM group is hydrolyzed in the cells to become Fura-2. Thus, Fura-2 can form a chelate with Ca^2+ and is also unlikely to leak out of the cells due to the loss of the AM group.
In the same manner as in Test Example 1, the maximum calcium ion concentration was measured after 7 minutes from the start of measurement (i.e., after replacement with the Ca^2+-containing solution) by using TRPC6-expressing cells prepared in the same manner as in Test Example 1, except that 10 μM of Pyr 4 and 10 μM of compound 011, 031, 041, or 191 (test compound) were used. The average value of calcium ion concentrations up to 30 seconds after the start of measurement (the initial value of calcium ion concentration) was subtracted from the maximum calcium ion concentration, and the calculated value was determined to be the amount of increase in calcium ions. FIG. 3 illustrates the results.
The calcium ion concentration was measured in the same manner as in Test Example 2, except that 10 μM of compound 011, 361, 362(E), 362(Z), 371, 372(Z), 381, or 401 (test compound) was used, and Pyr 4 was not used, thereby determining the amount of increase in calcium ions. Table 2 illustrates the amount of increase in calcium ions for each test compound relative to the amount of increase in calcium ions in the control (DMSO) taken as 100%.

In the case of `O=C(O)c1cnc(N2CCN(c3noc4cccc(C(F)(F)F)c34)CC2)c(Cl)c1` [Compound 011, 5-chloro-6-(4-(4-(trifluoromethyl)benzo[d]isoxazol-3-yl)piperazin-1-yl) nicotinic acid], under “10 μM test compound, carbachol”, the “suppression of TRPC6 channel activation (decrease in calcium ion influx, FIG. 3)” value is recorded as “activation of the TRPC6 channel was suppressed”. Further, the “amount of increase in calcium ions relative to control (DMSO) taken as 100%” value (10 μM test compound, carbachol, TRPC6-expressing cells) is 21%. Besides, the “Ca2+ concentration in the cells reached after addition of carbachol” value (TRPC6, FIG. 1, from about 100 nM, control (DMSO) about 280 nM) is given as “about 140 nM”. For the same molecule, the IC50 (TRPC6-expressing HEK293 cells, carbachol 100 μM, from concentration-response curves, read-out: IC50 for inhibition of the TRPC6 channel) is 4.6 µM.
